According to the Kinase Knowledgebase extract (Sharma et al. 2016):

Experiments:
PIK3CG (human) = PIK3CG (human) (UniProt P48736); assay: Assessment of PIK3CG Kinase Activity
PIK3CA (human) = PIK3CA (human) (UniProt P42336); assay: Assessment of PIK3CA Kinase Activity
PIK3CD (Human) = PIK3CD (Human) (UniProt O00329); assay: Assessment of PIK3CD Kinase Activity
PIK3CB (Human) = PIK3CB (Human) (UniProt P42338); assay: Assessment of PIK3CB Kinase Activity
PIK3CB (Human), sequence (P42338 whole entry, looked up): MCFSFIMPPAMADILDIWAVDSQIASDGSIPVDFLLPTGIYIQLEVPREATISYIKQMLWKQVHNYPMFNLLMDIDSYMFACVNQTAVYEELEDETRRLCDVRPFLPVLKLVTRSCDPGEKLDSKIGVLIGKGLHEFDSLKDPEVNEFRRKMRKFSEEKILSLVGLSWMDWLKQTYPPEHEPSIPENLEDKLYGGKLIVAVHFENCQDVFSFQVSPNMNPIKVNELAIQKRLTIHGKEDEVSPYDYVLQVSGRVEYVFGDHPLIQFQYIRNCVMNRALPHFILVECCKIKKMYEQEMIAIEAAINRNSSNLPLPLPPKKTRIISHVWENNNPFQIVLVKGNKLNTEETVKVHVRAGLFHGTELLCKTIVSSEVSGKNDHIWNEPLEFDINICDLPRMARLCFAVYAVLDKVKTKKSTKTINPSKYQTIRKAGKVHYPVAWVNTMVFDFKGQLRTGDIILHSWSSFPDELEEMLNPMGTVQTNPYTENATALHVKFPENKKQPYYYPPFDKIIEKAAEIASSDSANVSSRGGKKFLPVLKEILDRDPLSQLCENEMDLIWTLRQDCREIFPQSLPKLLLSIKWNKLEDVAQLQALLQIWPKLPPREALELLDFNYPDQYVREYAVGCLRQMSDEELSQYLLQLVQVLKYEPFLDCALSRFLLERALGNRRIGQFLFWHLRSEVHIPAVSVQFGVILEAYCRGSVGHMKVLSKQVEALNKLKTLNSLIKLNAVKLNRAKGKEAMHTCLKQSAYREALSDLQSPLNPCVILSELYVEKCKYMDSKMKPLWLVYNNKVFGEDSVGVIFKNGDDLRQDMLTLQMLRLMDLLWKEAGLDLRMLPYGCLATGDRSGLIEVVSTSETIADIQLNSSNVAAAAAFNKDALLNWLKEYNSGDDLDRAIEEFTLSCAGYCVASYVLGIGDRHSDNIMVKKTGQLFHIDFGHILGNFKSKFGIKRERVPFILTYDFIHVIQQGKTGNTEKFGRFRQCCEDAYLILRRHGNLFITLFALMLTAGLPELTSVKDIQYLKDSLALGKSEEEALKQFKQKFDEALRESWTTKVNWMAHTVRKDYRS

PIK3CD (Human), sequence (O00329 whole entry, looked up): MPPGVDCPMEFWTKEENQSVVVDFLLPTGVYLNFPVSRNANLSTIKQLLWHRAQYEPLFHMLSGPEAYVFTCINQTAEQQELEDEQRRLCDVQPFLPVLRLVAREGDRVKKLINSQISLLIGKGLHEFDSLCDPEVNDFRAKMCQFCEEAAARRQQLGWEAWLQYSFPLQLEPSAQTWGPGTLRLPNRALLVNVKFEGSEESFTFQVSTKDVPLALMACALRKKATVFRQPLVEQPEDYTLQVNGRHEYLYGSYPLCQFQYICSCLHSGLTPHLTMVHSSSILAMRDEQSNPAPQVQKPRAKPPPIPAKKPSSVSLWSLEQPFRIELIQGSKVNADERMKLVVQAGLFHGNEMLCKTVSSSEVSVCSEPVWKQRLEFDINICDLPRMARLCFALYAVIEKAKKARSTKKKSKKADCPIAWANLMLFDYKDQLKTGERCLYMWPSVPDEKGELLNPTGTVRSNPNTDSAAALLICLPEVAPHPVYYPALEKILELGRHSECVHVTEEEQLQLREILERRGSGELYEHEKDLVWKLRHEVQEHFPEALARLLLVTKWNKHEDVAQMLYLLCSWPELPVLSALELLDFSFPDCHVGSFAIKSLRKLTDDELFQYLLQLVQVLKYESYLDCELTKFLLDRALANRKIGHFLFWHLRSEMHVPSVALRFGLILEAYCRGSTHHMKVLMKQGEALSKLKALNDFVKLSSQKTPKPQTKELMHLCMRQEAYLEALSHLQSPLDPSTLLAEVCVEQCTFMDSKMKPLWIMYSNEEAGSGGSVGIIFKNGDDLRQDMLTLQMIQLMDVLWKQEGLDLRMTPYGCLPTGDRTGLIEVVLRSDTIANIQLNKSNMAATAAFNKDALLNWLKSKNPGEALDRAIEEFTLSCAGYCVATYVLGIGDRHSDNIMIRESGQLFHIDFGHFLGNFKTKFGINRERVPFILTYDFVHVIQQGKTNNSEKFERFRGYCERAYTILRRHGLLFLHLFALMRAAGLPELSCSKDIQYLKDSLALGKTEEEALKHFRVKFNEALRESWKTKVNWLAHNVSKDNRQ
PIK3CA (human), sequence (P42336 whole entry, looked up): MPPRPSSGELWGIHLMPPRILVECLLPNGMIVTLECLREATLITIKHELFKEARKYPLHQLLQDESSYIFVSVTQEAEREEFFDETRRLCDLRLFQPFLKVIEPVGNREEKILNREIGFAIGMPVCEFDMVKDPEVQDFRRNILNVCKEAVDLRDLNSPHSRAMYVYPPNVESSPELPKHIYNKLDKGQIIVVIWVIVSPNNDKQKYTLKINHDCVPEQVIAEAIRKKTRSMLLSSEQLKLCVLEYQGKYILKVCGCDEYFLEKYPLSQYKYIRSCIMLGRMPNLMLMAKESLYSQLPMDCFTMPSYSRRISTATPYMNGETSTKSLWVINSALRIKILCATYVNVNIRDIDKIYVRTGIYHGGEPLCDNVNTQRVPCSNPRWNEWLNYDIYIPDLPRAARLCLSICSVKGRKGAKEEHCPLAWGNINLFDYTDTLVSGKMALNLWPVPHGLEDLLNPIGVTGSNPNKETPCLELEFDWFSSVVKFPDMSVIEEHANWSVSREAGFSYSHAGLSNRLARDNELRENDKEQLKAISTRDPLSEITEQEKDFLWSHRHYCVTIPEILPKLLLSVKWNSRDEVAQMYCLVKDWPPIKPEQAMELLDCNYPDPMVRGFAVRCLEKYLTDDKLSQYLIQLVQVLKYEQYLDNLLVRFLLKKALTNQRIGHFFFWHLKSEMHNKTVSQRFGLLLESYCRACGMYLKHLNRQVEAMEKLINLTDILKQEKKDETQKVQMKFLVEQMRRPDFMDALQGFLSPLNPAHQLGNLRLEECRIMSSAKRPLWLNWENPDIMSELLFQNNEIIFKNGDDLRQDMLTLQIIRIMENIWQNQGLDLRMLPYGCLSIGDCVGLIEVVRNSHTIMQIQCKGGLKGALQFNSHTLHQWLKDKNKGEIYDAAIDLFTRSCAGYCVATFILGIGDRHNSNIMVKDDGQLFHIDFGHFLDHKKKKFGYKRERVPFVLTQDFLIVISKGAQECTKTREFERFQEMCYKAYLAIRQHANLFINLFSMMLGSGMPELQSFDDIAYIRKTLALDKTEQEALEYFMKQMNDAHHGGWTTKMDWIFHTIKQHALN
PIK3CG (human), sequence (P48736 whole entry, looked up): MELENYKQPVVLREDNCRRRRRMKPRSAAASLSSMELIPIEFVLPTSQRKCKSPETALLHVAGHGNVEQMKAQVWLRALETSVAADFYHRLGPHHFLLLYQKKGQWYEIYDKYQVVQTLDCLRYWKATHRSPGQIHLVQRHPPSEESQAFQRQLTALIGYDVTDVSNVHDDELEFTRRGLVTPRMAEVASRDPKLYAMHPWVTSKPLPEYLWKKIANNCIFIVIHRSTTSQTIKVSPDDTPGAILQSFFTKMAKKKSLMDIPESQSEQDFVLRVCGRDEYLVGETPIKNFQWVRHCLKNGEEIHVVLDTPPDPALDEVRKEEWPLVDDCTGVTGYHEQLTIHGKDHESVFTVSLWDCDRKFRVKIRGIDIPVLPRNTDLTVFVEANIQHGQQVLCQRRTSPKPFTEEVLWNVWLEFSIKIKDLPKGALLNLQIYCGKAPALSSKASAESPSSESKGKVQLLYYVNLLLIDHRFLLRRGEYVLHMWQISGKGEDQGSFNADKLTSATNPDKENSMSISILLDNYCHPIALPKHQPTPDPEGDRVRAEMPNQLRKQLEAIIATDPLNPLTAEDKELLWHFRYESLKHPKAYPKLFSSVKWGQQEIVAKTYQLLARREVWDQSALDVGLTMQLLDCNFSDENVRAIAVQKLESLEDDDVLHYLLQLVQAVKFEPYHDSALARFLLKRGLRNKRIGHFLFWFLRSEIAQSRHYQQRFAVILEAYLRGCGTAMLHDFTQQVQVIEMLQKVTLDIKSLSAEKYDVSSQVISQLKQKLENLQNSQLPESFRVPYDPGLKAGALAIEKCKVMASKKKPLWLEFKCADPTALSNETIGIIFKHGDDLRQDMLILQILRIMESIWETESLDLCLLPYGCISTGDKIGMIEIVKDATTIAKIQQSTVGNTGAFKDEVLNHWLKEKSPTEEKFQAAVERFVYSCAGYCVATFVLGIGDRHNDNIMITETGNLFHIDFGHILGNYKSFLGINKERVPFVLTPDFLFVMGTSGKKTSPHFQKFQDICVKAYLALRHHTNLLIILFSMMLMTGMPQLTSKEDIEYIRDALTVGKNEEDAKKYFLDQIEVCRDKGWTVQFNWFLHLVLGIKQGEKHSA

| Structure (SMILES) | IC50 (PIK3CG (human)) | IC50 (PIK3CA (human)) | IC50 (PIK3CD (Human)) | IC50 (PIK3CB (Human)) |
| --- | --- | --- | --- | --- |
| C[C@H](Nc1nc(N)ncc1C(F)(F)F)c1cc2cccc(C(F)(F)F)c2c(=O)n1-c1ccccc1 | < 100 nM | > 10000 nM | < 100 nM | – |
| C[C@H](Nc1ncnc2ccnn12)c1cc2cccc(C(F)(F)F)c2c(=O)n1-c1ccccc1 | < 100 nM | > 10000 nM | < 100 nM | – |
| C[C@H](Nc1ncnc2cccnc12)c1cc2cccc(-c3cnc(N)nc3)c2c(=O)n1-c1ccccc1 | < 100 nM | 100 to 1000 nM | < 100 nM | – |
| C[C@H](Nc1nc(N)nc2nccnc12)c1cc2cccc(Cl)c2c(=O)n1-c1ccccc1 | < 100 nM | > 10000 nM | 100 to 1000 nM | – |
| C[C@H](Nc1cc(Cl)nn2ccnc12)c1cc2cccc(C(F)(F)F)c2c(=O)n1-c1cccc(F)c1 | – | > 10000 nM | 100 to 1000 nM | > 10000 nM |
| C[C@H](Nc1ccnn2ccnc12)c1cc2cccc(Cl)c2c(=O)n1CCN1CCCC1 | > 10000 nM | > 10000 nM | – | – |
| C[C@H](Nc1ncnc2[nH]cnc12)c1cc2scc(C(F)(F)F)c2c(=O)n1-c1ccccc1 | – | 100 to 1000 nM | 100 to 1000 nM | 100 to 1000 nM |
| C[C@H](Nc1cc(O)nc2cccnc12)c1cc2cccc(Cl)c2c(=O)n1-c1ccccc1 | – | > 10000 nM | – | > 10000 nM |
| Cc1nsc2cc(C(C)Nc3ncnc4cccnc34)n(-c3ccccc3)c(=O)c12 (stereo not drawn) | – | > 10000 nM | 100 to 1000 nM | > 10000 nM |
| C[C@H](Nc1cc(N)nc2ccnn12)c1cc2cccc(Cl)c2c(=O)n1-c1ccccc1 | < 100 nM | > 10000 nM | < 100 nM | – |
| C[C@H](Nc1ccnc2cccnc12)c1cc2cccc(C(F)(F)F)c2c(=O)n1-c1ccccc1 | < 100 nM | > 10000 nM | < 100 nM | – |
| C[C@H](Nc1cc(Cl)nn2ccnc12)c1cc2cccc(-c3cnn(C)c3)c2c(=O)n1C1CC1 | – | > 10000 nM | – | > 10000 nM |
| C[C@H](Nc1nc(Cl)nc2nccnc12)c1cc2cccc(Cl)c2c(=O)n1-c1ccccc1 | – | > 10000 nM | – | > 10000 nM |
| C[C@H](Nc1ncnc2ccnn12)C1=Cc2cccc(Cl)c2C(C(=O)N2CCOCC2)N1 (stereo partly drawn) | – | > 10000 nM | 100 to 1000 nM | – |
| C[C@H](Nc1ccnc2ccnn12)c1cc2cccc(C(F)(F)F)c2c(=O)n1-c1cccc(F)c1 | < 100 nM | > 10000 nM | < 100 nM | – |
| C[C@H](Nc1ncnc2[nH]nc(C#N)c12)c1cc2cccc(Cl)c2c(=O)n1-c1ccccc1 | < 100 nM | > 10000 nM | < 100 nM | – |
| Cc1cncc(-c2cccc3cc([C@H](C)Nc4nc(N)nc5cccnc45)n(-c4ccccc4)c(=O)c23)c1 | < 100 nM | 100 to 1000 nM | < 100 nM | – |
| C[C@H](Nc1ncnc2cccnc12)c1cc2cccc(-c3cnn(C)c3)c2c(=O)n1C | – | > 10000 nM | – | > 10000 nM |
| C[C@H](Nc1nc(N)nc2cccnc12)c1cc2cccc(-c3cnn(C)c3)c2c(=O)n1C1CC1 | < 100 nM | 100 to 1000 nM | < 100 nM | – |
| COc1cncc(-c2cccc3cc([C@H](C)Nc4nc(N)nc5cccnc45)n(-c4ccccc4)c(=O)c23)c1 | < 100 nM | 100 to 1000 nM | < 100 nM | – |
| C[C@H](Nc1nc(N)nc2cccnc12)c1cc2cccc(-c3cnc4ccccc4c3)c2c(=O)n1-c1ccccc1 | < 100 nM | 100 to 1000 nM | < 100 nM | – |
| Cc1ncc(-c2cccc3cc([C@H](C)Nc4nc(N)nc5cccnc45)n(-c4ccccc4)c(=O)c23)s1 | < 100 nM | 100 to 1000 nM | < 100 nM | – |
| Cc1cc(-c2cccc3cc([C@H](C)Nc4ncnc5cccnc45)n(-c4ccccc4)c(=O)c23)ccn1 | < 100 nM | 100 to 1000 nM | < 100 nM | – |

| Structure (SMILES) | IC50 (PIK3CG (human)) | IC50 (PIK3CA (human)) | IC50 (PIK3CD (Human)) | IC50 (PIK3CB (Human)) |
| --- | --- | --- | --- | --- |
| Cc1cn2nccc(N[C@@H](C)c3cc4cccc(-c5cnn(C)c5)c4c(=O)n3-c3ccccc3)c2n1 | – | > 10000 nM | – | > 10000 nM |
| Cc1cn2nccc(N[C@@H](C)c3cc4cccc(Cl)c4c(=O)n3-c3ccccc3)c2n1 | – | > 10000 nM | – | > 10000 nM |
| C[C@H](Nc1ccnn2ccnc12)c1cc2cccc(Cl)c2c(=O)n1-c1cccc(F)c1 | < 100 nM | – | < 100 nM | 100 to 1000 nM |
| C[C@H](Nc1ccnc2ccnn12)c1cc2cccc(Cl)c2c(=O)n1CCN1CCCC1 | > 10000 nM | > 10000 nM | – | – |
| C[C@H](Nc1ncnc2ccnn12)c1cc2cccc(Cl)c2c(=O)n1-c1cccc(F)c1 | 100 to 1000 nM | > 10000 nM | < 100 nM | – |
| C[C@H](Nc1ccnc2ccnn12)c1cc2cccc(C(F)(F)F)c2c(=O)n1-c1ccccc1 | < 100 nM | – | < 100 nM | 100 to 1000 nM |
| C[C@H](Nc1nc(N)ncc1C(F)(F)F)c1cc2cccc(C(F)(F)F)c2c(=O)n1-c1cccc(F)c1 | < 100 nM | > 10000 nM | < 100 nM | – |
| Cc1cn2nccc(N[C@@H](C)c3cc4cccc(Cl)c4c(=O)n3-c3cccc(F)c3)c2n1 | – | > 10000 nM | – | > 10000 nM |
| C[C@H](Nc1ccnn2ccnc12)c1cc2cccc(Cl)c2c(=O)n1C1CC1 | 100 to 1000 nM | – | < 100 nM | 100 to 1000 nM |
| Cc1cc(-c2cccc3nc([C@H](C)Nc4nc(N)nc5cccnc45)n(-c4ccccc4)c(=O)c23)ccn1 | < 100 nM | 100 to 1000 nM | < 100 nM | – |
| C[C@H](Nc1ccnc2ccnn12)c1cc2cccc(-c3cnn(C)c3)c2c(=O)n1-c1cccc(F)c1 | 100 to 1000 nM | – | < 100 nM | > 10000 nM |
| COc1ncc(-c2cccc3cc([C@H](C)Nc4ncnc5cccnc45)n(-c4cccc(F)c4)c(=O)c23)cn1 | 100 to 1000 nM | – | < 100 nM | > 10000 nM |
| Cc1ccnc2cc(C(C)Nc3ncnc4cccnc34)n(-c3ccccc3)c(=O)c12 (stereo not drawn) | 100 to 1000 nM | > 10000 nM | < 100 nM | – |
| Cc1cc(-c2cccc3cc([C@H](C)Nc4nc(N)nc5cccnc45)n(-c4ccccc4)c(=O)c23)ccn1 | < 100 nM | 100 to 1000 nM | < 100 nM | – |
| C[C@H](Nc1nc(N)ncc1C#N)c1cc2cccc(C(F)(F)F)c2c(=O)n1-c1ccccc1 | < 100 nM | – | < 100 nM | 100 to 1000 nM |
| C[C@H](Nc1nc(N)nc2cccnc12)c1cc2cccc(-c3cnn(C)c3)c2c(=O)n1-c1ccccc1 | < 100 nM | – | < 100 nM | > 10000 nM |
| C[C@H](Nc1ccnn2ccnc12)c1cc2cccc(C(F)(F)F)c2c(=O)n1-c1ccccc1 | < 100 nM | – | < 100 nM | 100 to 1000 nM |
| C[C@H](Nc1ncnc(N)c1C#N)c1cc2cccc(C(F)(F)F)c2c(=O)n1-c1cccc(F)c1 | < 100 nM | – | < 100 nM | 100 to 1000 nM |
| C[C@H](Nc1ccnc2ccnn12)c1cc2cccc(Cl)c2c(=O)n1C1CC1 | 100 to 1000 nM | – | < 100 nM | 100 to 1000 nM |
| COc1ccc(CNc2nc(N[C@@H](C)c3cc4cccc(-c5cnc(OC)nc5)c4c(=O)n3-c3ccccc3)c3ncccc3n2)cc1 | 100 to 1000 nM | > 10000 nM | 100 to 1000 nM | – |
| C[C@H](Nc1ncnc2scnc12)c1cc2cccc(C(F)(F)F)c2c(=O)n1-c1cccc(F)c1 | < 100 nM | – | < 100 nM | 100 to 1000 nM |
| C[C@H](Nc1nc(Cl)nc2scnc12)c1cc2cccc(C(F)(F)F)c2c(=O)n1-c1ccccc1 | < 100 nM | > 10000 nM | < 100 nM | – |
| Cc1cccc2cc([C@H](C)Nc3nc(N)nc4cccnc34)n(-c3cccc(F)c3)c(=O)c12 | < 100 nM | 100 to 1000 nM | < 100 nM | – |
